Values after ≈ are worked out from the molar mass of the structure shown. Like-named read-outs stand apart in the source and are kept apart here. Non-standard residues stand in square brackets, D forms with d. Residues, ends and D or L forms follow the SMILES beside them. Dab(3S-OH) = NC[C@H](O)[C@H](N)C(=O)O; Phe(2-F) = N[C@@H](Cc1ccccc1F)C(=O)O; ΔZArg = N=C(N)NCC/C=C(\N)C(=O)O; dOrn = NCCC[C@@H](N)C(=O)O; Dab = NCC[C@H](N)C(=O)O
Tests used:
in vitro [1] = conditions: human, cryopreserved pooled hepatocytes
CHO-K1 cells = conditions: 512 μM, 24 h; S9 medium negative control 0.7%
Protocol: The test was conducted by Eurofins Panlabs. […] At the end of the incubation period the cells were fixed, and their DNA was stained with Hoechst. The visualization and scoring of the cells was done using an automated fluorescence microscope coupled with proprietary automated image analysis software ([46]). The percent micronucleated cells was calculated.

in vitro [2] = conditions: liver microsomes, pH 7.4
Protocol: The microsome metabolic stability assays were performed by Cyprotex Discovery Ltd. (Macclesfield, UK). Pooled microsomes from different species (mouse, rat, dog, monkey, and human) were stored at −80°C prior to use. […] The final incubation volume was 500 μl. A minus cofactor control incubation was included for each compound tested, in which 0.1 M phosphate buffer (pH 7.4) was added instead of NADPH (minus NADPH). Two control compounds were included with each species. Each compound was incubated for 0, 5, 15, 30, and 45 min. The control (minus NADPH) was incubated for 45 min only. The reactions were stopped by transferring an aliquot of the mixture to 40% TCA in water containing an internal standard (NOSO-95216, 1 μM final concentration) for the test compounds, or methanol for the control compounds, at the desired time points. The termination plates were centrifuged at 2,500 rpm for 20 min at 4°C to precipitate the protein. Following protein precipitation, the test compound sample supernatants were diluted with analytical-grade water, whereas the control compounds were diluted with an internal standard (metoprolol) in water. The test compound samples were analyzed by LC-MS/MS.

hERG = hERG (Homo sapiens, UniProt Q12809); assay: in vitro
hERG, sequence (Q12809 whole entry): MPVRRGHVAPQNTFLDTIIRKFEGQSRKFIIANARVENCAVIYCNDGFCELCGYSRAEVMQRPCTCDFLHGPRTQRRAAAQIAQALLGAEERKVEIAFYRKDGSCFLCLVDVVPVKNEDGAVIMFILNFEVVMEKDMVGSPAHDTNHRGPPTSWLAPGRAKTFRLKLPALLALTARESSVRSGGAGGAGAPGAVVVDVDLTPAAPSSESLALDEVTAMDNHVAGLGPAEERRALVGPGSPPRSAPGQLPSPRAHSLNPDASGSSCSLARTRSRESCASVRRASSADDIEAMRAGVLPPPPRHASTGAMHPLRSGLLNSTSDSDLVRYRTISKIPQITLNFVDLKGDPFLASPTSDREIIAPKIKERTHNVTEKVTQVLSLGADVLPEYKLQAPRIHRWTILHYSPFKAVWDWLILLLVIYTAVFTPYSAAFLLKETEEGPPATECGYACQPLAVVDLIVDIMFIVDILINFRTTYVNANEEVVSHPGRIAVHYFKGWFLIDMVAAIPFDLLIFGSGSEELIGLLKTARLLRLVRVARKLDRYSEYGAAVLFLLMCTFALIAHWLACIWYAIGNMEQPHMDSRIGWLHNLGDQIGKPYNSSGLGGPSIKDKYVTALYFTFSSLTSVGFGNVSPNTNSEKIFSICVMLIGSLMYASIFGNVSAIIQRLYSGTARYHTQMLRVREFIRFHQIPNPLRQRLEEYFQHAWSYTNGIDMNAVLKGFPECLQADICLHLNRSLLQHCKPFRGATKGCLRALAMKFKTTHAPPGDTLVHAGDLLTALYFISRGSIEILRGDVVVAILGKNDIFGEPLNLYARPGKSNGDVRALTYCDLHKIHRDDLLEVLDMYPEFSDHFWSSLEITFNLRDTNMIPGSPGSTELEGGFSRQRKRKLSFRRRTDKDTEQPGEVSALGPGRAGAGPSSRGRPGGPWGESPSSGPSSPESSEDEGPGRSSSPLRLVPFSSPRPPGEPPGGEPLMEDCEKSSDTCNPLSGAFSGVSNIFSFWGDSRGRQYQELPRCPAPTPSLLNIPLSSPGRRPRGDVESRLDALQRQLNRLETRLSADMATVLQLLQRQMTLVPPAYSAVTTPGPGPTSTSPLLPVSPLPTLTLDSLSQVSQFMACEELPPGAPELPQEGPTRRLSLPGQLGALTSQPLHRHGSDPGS
Protocol: Inhibition of the human ether-a-go-go-related gene (hERG) cardiac potassium ion channel was determined by Eurofins Panlabs (Eurofins Panlabs, Inc., St. Charles, MO) in CHO-K1 (Chinese hamster ovary) cells stably transfected with human hERG cDNA using QPatch automated whole-cell patch clamp electrophysiology as described in reference [45]. […] In this method, the extracellular solution (control) is applied first and the cell is stabilized in the solution for 5 min. Then the test compound is applied from low to high concentrations sequentially on the same cell, with 5 min for each test concentration, at room temperature.

Escherichia coli MIN = conditions: Ambler class A carbapenemase; KPC-3 + OXA-9
Excerpt: (§1) Reference strains are from the German Collection of Microorganisms and Cell Cultures (DSMZ), the American Type Culture Collection (ATCC), the National Collection of Type Cultures (NCTC), and the Medical and Molecular Microbiology, Faculty of Science and Medicine, University of Fribourg, Switzerland.

[3] = system: Enterobacter cloacae 10.72; conditions: Ambler class C carbapenem resistant; AmpC overexpressed + TEM-1 + OXA-1
Excerpt: as §1

[4] = system: Gentamicin-resistant E. coli (6); conditions: 6 gentamicin-resistant isolates
Excerpt: as §1

[5] = system: Klebsiella pneumoniae, colistin resistant (46)
Excerpt: as §1

[6] = system: Klebsiella pneumoniae DUB; conditions: Ambler class D carbapenemase; OXA-48 + CTX-M15 + TEM-1 + SHV-1 + OXA-1 + CMY-2
Excerpt: as §1

in vitro [7] = conditions: plasma, pH 7.4
Protocol: The final incubation volume was 200 μl. All incubations were performed singularly for each compound at each time point. A vehicle control incubation was included using either water or DMSO, along with a control compound known to be metabolized specifically by each species. Each compound was incubated for 0, 15, 30, 60, and 120 min at 37°C. The reactions were stopped by the addition of 40% TCA in water containing an internal standard (NOSO-95216, 1 μM final concentration) for the test compounds, or methanol for the control compounds, at the appropriate time points. The vehicle control incubation was incubated for 120 min only. The termination plates were centrifuged at 3,000 rpm for 45 min at 4°C to precipitate the protein. Following protein precipitation, the test compound sample supernatants were diluted with analytical-grade water, whereas the control compounds were diluted with an internal standard (metoprolol) in water. The test compound samples were analyzed by LC-MS/MS.

in vitro [8] = conditions: cryopreserved pooled hepatocytes
Protocol: The hepatocyte metabolic stability assays were performed by Cyprotex Discovery Ltd. (Macclesfield, UK). This assay utilizes cryopreserved pooled hepatocytes from different species (mouse, rat, dog, monkey, and human), stored in liquid nitrogen prior to use. […] The final incubation volume was 500 μl. Two control compounds were included with each species alongside an appropriate vehicle control. […] The termination plates were centrifuged at 2,500 rpm at 4°C for 30 min to precipitate the protein. Following protein precipitation, the test compound sample supernatants were diluted with analytical-grade water, whereas the control compounds were diluted with an internal standard (metoprolol) in water. The test compound samples were analyzed by liquid chromatography-tandem mass spectrometry (LC-MS/MS).

E. coli EN122 = conditions: ESBL, clinical isolate
Protocol: (§2) MIC values were determined using Clinical and Laboratory Standards Institute (CLSI) broth microdilution methodology, colony direct suspension, as described in CLSI document M07-A10 ([42]).

Escherichia coli MON = conditions: Ambler class B carbapenemase; NDM-5 + CTX-M15 + TEM-1
Excerpt: as §1

Escherichia coli DOV = conditions: Ambler class D carbapenemase; OXA-48 + TEM-1 + CTX-M15 + OXA-1
Excerpt: as §1

[9] = system: Klebsiella pneumoniae LAM; conditions: Ambler class B carbapenemase; NDM-4 + SHV-11 + CTX-M15
Excerpt: as §1

Escherichia coli GAL = conditions: Ambler class B carbapenemase; NDM-6 + OXA-1 + CTX-M15
Excerpt: as §1

Protocol for E. coli UTI89: as §2

## N=C(N)NCC/C=C(\NC(=O)[C@H](CCCCN)NC(=O)[C@H](Cc1ccccc1F)NC(=O)[C@@H]1CCCN1C(=O)[C@@H](CCCN)NC(=O)CNC(=O)[C@H](CCN)NC(=O)[C@@H](NC(=O)[C@@H](N)CCCCN)[C@@H](O)CN)C(=O)O [NOSO-502] (H-K[Dab(3S-OH)][Dab]G[dOrn]P[Phe(2-F)]K[ΔZArg]-OH)
In vitro [1]
  half-life at 1 μM: 5.48 h
CHO-K1 cells
  cells with micronuclei: 0.61%
E. coli UTI89
  MIC: 4 µg/mL (≈ 3.71 µM)
In vitro [2]; dog
  half-life at 1 μM: 1.68 h
In vitro [2]; human
  half-life at 1 μM: 2.42 h
In vitro [2]; monkey
  half-life at 1 μM: 2.45 h
In vitro [2]; mouse
  half-life at 1 μM: 1.93 h
In vitro [2]; rat
  half-life at 1 μM: 2.15 h
hERG
  inhibition at 5 min, 256 µM: 2.6%
  inhibition at 5 min, 512 µM: 1.9%
Escherichia coli MIN
  MIC: 4 µg/mL
[3]
  MIC: 1 µg/mL
[4]
  MIC range: 4 µg/mL (≈ 3.71 µM)
[5]; Unknown mechanism (1)
  MIC range: 0.5 µg/mL (≈ 0.464 µM)
[5]; crrB F84S substitution (1)
  MIC range: 8 µg/mL (≈ 7.42 µM)
[5]; crrB G183V substitution (1)
  MIC range: 64 µg/mL (≈ 59.4 µM)
[5]; crrB N141Y substitution (1)
  MIC range: 16 µg/mL (≈ 14.8 µM)
[5]; crrB P151L substitution (1)
  MIC range: 128 µg/mL (≈ 119 µM)
[5]; mcr-1 (1)
  MIC range: 0.5 µg/mL (≈ 0.464 µM)
[5]; mgrB IS1R between +44 and +45 (2)
  MIC range: 1 µg/mL (≈ 0.927 µM)
[5]; mgrB IS1R into promoter between −45 and −46 (3)
  MIC range: 0.5 to 1 µg/mL
[5]; mgrB IS5 between +74 and +75 (4)
  MIC range: 0.5 to 2 µg/mL
[5]; mgrB IS903B between +69 and +70 (2)
  MIC range: 0.25 to 1 µg/mL
[5]; mgrB ISKpn14 into promoter between −28 and −29 (2)
  MIC range: 0.5 to 2 µg/mL
[5]; mgrB ISKpn26-like between +74 and +75 (2)
  MIC range: 1 µg/mL (≈ 0.927 µM)
[5]; mgrB M27K substitution (1)
  MIC range: 2 µg/mL (≈ 1.85 µM)
[5]; mgrB N42Y and K43I substitutions (1)
  MIC range: 2 µg/mL (≈ 1.85 µM)
[5]; mgrB W20R substitution (1)
  MIC range: 0.5 µg/mL (≈ 0.464 µM)
[5]; mgrB W47R substitution (1)
  MIC range: 1 µg/mL (≈ 0.927 µM)
[5]; mgrB full deletion (5)
  MIC range: 0.5 to 1 µg/mL
[5]; mgrB premature termination (6)
  MIC range: 0.5 to 1 µg/mL
[5]; phoQ R16C substitution (1)
  MIC range: 2 µg/mL (≈ 1.85 µM)
[5]; pmrA G53S substitution (2)
  MIC range: 1 to 2 µg/mL
[5]; pmrB L17Q substitution (1)
  MIC range: 1 µg/mL (≈ 0.927 µM)
[5]; pmrB T157P substitution (6)
  MIC range: 0.25 to 16 µg/mL
[6]
  MIC: 0.5 µg/mL
In vitro [7]; dog
  half-life at 10 μM: 2.63 h
In vitro [7]; human
  half-life at 10 μM: 1.32 h
In vitro [7]; monkey
  half-life at 10 μM: 1.6 h
In vitro [7]; mouse
  half-life at 10 μM: 0.9 h
In vitro [7]; rat
  half-life at 10 μM: 0.6 h
In vitro [8]; dog
  half-life at 1 μM: 8.05 h
In vitro [8]; monkey
  half-life at 1 μM: 11.6 h
In vitro [8]; mouse
  half-life at 1 μM: 3.2 h
In vitro [8]; rat
  half-life at 1 μM: 3.23 h
E. coli EN122
  MIC: 4 µg/mL (≈ 3.71 µM)

## polymyxin B [PMB]
Escherichia coli MON
  MIC: 0.5 µg/mL
Escherichia coli MIN
  MIC: 0.5 µg/mL
Escherichia coli DOV
  MIC: 0.5 µg/mL
[3]
  MIC: 0.5 µg/mL
[9]
  MIC: 0.5 µg/mL
[6]
  MIC: 0.5 µg/mL
Escherichia coli GAL
  MIC: 0.25 µg/mL

Reference: paper PMC6125496 (Antimicrobial Agents and Chemotherapy, 2018)
